{"source": "patent US20040197784A1", "about": "“Retinoid inducible proteins of vascular smooth muscle cells and uses thereof” (priority 2001, published 2004)", "molecules": {"B1": {"name": "RISC: retinoid inducible serine carboxypeptidase protein, expressed as RISC-His fusion protein in stably transfected PAC1 SMC (protein, UniProt Q920A6 29-452, looked up)", "Retinoid-inducible serine …": "LNWREQEGKEVWDYVTVREDARMFWWLYYATNPCKNFSELPLVMWLQGGPGGSSTGFGNFEEIGPLDTRLKPRNTTWLQWASLLFVDNPVGTGFSYVNTTDAYAKDLDTVASDMMVLLKSFFDCHKEFQTVPFYIFSESYGGKMAAGISLELHKAIQQGTIKCNFSGVALGDSWISPVDSVLSWGPYLYSVSLLDNKGLAEVSDIAEQVLNAVNKGFYKEATQLWGKAEMIIEKNTDGVNFYNILTKSTPDTSMESSLEFFRSPLVRLCQRHVRHLQGDALSQLMNGPIKKKLKIIPDDVSWGAQSSSVFISMEEDFMKPVIDIVDTLLELGVNVTVYNGQLDLIVDTIGQESWVQKLKWPQLSRFNQLKWKALYTNPKSSETSAFVKSYENLAFYWILKAGHMVPADQGDMALKMMRLVTQQE", "modifications": "His tag", "notes": "retinoid inducible serine carboxypeptidase protein, expressed as RISC-His fusion protein in stably transfected PAC1 SMC"}}, "key": {"RASMC [1]": {"test_system": "RASMC", "test": "Northern blotting of atRA-induced retinoid-response gene mRNA in cultured RASMC", "settings": "for expression of this gene set (the 14 atRA-inducible clones): Northern blot; for Peak Fold Induction: 2×10^−6 mol/L atRA", "experimental": "Rat aortic smooth muscle cells (“RASMC”) were stimulated with atRA for the indicated times and then processed for total RNA isolation and Northern blotting. Two duplicate blots were then sequentially hybridized to each of the 14 cDNAs. Scanning densitometry was performed at each time point and normalized to the corresponding GAPDH signal to ascertain the peak mRNA induction value listed in Table 2.\nCultured rat aortic SMC (RASMC) were derived from aortas of male Sprague-Dawley rats by a combined explant-enzymatic digestion procedure as described previously (Miano et al., “Expression of the Smooth Muscle Cell Calponin Gene Marks the Early Cardiac and Smooth Muscle Cell Lineages During Mouse Embryogenesis,” J. Biol. Chem. 271:7095-7103 (1996), which is hereby incorporated by reference in its entirety). These cells were grown in Dulbecco's Modified Eagle's Medium (DMEM) supplemented with 10% fetal bovine serum (FBS), 2 mM L-glutamine and antibiotics. […] Unless indicated otherwise, cells were grown on 100-mm dishes and treated with either 2×10^−mol/L all-trans-retinoic acid (atRA) or an equal volume of dimethylsulfoxide (DMSO) for various times when culture was 70-80% confluent.\nTotal RNA from cultured RASMC and rat tissues was isolated by the acid phenol-guanidinium isothiocyanate method (Chomczynski et al., “Single-Step Method of RNA Isolation by Acid Guanidinium Thiocyanate-Phenol-Chloroform Extraction,” Anal. Biochem. 162:156-159 (1987), which is hereby incorporated by reference in its entirety). […] Independent samples of RNA were also obtained from RASMC treated for 3, 6, 12, 24, 48, 72, 96, and 120 hr with 2×10^−6 mol/L atRA to obtain a temporal pattern of expression for each positive clone. In some experiments the effects of cycloheximide (CHX, 2.5 μg/ml) on atRA-induced gene expression were examined. […] Total RNA was size-fractionated in 1.2% agarose-formaldehyde gels, transferred to nylon membranes and then hybridized and washed following standard procedures (ExpressHyb™, CLONTECH, Palo Alto, Calif.). A rat glyceraldehyde phosphate dehydrogenase (GAPDH) or 18 S probe was used as an internal control for RNA loading. Autoradiography was performed and exposure times varied so that band intensities could be reliably quantitated using NIH Image 1.60 analysis software."}, "PAC-1 SMC": {"test_system": "PAC-1 SMC", "test": "RISC mRNA expression after atRA, Northern blotting, PAC-1 SMC", "assay_type": "cell-based, rat", "procedure": "(§1) 10-20 μg of total RNA from RASMC, PAC-1 SMC, hCASMC or rat tissues was fractionated on 1.1% agarose gel in the presence of 0.66 mol/L formaldehyde, transferred to nylon membrane, and hybridized with a 405 nt RISC cDNA probe labeled with α-^32P-dCTP. For human tissue Northern blotting, a Human Multiple Tissue Northern Blot was obtained from CLONTECH and hybridized with a human RISC DNA probe, cloned from a human BAC (AC007114; obtained from Research Genetics, Inc., Huntsville, Ala.) by PCR. Hybridizations were carried out in Rapid-hyb buffer (Amersham Life Science, Piscataway, N.J.) or Expresshyb Hybridization Solution (CLONTECH, Palo Alto, Calif.) containing labeled probe (˜2×10^6 cpm/ml) at 62-68° C. for 1-2 h or overnight, depending on the probe used. The blots were then washed under stringent conditions and exposed to Kodak XAR films for different lengths of time. Housekeeping genes used as internal controls for equal RNA loading included glyceraldehyde 3-phosphate dehydrogenase (GAPDH), 18 S rRNA, and β-actin."}, "RASMC [2]": {"test_system": "RASMC", "test": "RISC mRNA expression after atRA, Northern blotting, RASMC", "assay_type": "cell-based, rat", "procedure": "FIGS. 9A-B show the induction of retinoid inducible serine carboxypeptidase (“RISC”) mRNA expression by atRA in a time-dependent manner. Total RNA isolated from RASMC treated with 2.0 μM atRA for 0, 3, 6, 12, 24, 48, 72, 96, 120 h was analyzed by Northern blotting with a rat RISC cDNA probe. […] Blots were also probed with GAPDH as a control for equal loading for each lane. Data shown are representative of two independent experiments.\nas §1"}, "hCASMC": {"test_system": "hCASMC", "test": "RISC mRNA expression after atRA, Northern blotting, hCASMC", "assay_type": "cell-based, human", "procedure": "as §1"}, "[3]": {"test_system": "de novo protein synthesis", "test": "CHX effect on de novo protein synthesis and cytotoxicity", "assay_type": "cell-based", "settings": "CHX 2.5 μg/ml", "experimental": "In some experiments the effects of cycloheximide (CHX, 2.5 μg/ml) on atRA-induced gene expression were examined."}, "RASMC [4]": {"test_system": "RASMC", "test": "Cycloheximide (CHX) effects on atRA inducible gene expression, Northern blot", "assay_type": "cell-based, rat", "settings": "2.5 μg/ml CHX", "procedure": "All 4 genes show atRA-induced mRNA expression after 24 hr stimulation. […] SALF and Src-Suppressed C Kinase Substrate (“SSeCKS”) mRNA induction, however, is protein synthesis-independent. Refer to Table 2 for a complete summary of the CHX sensitivity studies.\nTo determine whether atRA-induced gene expression required de novo protein synthesis, rat aorta smooth muscle cell tissue was incubated with atRA in the absence or presence of cycloheximide (“CHX”) and then measured the expression of each atRA-inducible gene. […] On the other hand, atRA-induced Stoned B/TFIIAα/β-like factor (“SALF”) and Src Suppressed C Kinase Substrate (“SSeCKS”) mRNA were not blocked with CHX. In fact, there was a slight super-induction of these genes with CHX, shown in FIG. 6, which is a common characteristic of immediate early genes."}, "PAC1 SMC": {"test_system": "PAC1 SMC", "test": "Growth of PAC1 SMC stably transfected with RISC (cell counts over 5 days)", "assay_type": "cell-based, rat", "settings": "three stably transfected RISC cell lines, 10% FBS, vs empty vector (mock)", "procedure": "Rat or human RISC is cloned into a suitable mammalian expression plasmid including, but not limited to, pEF1/V5-His, and verified for expression by Western blotting (using an antibody that binds the His tag of the RISC-His fusion protein) of transiently-transfected cells. For transient transfection, subconfluent cells are overlayed with a DNA-calcium-phosphate coprecipitate containing the RISC expression plasmid and then allowed to incubate overnight The following day, cells are washed with phosphate-buffered saline and re-fed fresh growth medium for an additional 24-48 hours whereupon standard cell lysates are made for protein analysis via Western blotting. […] Following two weeks of selection in G418, resistant cell “clones” cartying the RISC-His fusion protein are isolated and expanded for further analysis.\nEach of three stably transfected cell lines were grown in the presence of 10% FBS for 5 days and on each day total cell numbers were calculated with a hemocytometer. […] A graph illustrating the effects on SMC growth is shown at FIG. 17."}, "ERK": {"test_system": "ERK", "test": "RISC attenuation of ERK activity (phospho-ERK immunoblot)", "assay_type": "cell-based, rat", "settings": "RISC expressing cells vs mock cells; 30 minutes after serum stimulation", "procedure": "Stable cell lines prepared according to Example 3 were grown to subconfluence and made quiescent by serum withdrawal (typically 0.5% FBS for 24-48 hours). Cells were then stimulated with serum or a purified growth factor (PDGF-BB) to stimulate the ERK pathway. At selected times following such stimulation, standard cell extracts were prepared to analyze the activation of ERK as measured by its phosphorylated state with a phospho-specific antibody."}}}
{"molecule": "CC1=C(/C=C/C(C)=C/C=C/C(C)=C\\C(=O)O)C(C)(C)CCC1", "note": "[13-cis RA]", "values": [{"measurement": "expression of this gene set (the 14 atRA-inducible clones)", "setting": "RASMC [1]", "value": "elevated"}]}
{"molecule": "CC1=C(/C=C/C(C)=C/C=C/C(C)=C/C(=O)O)C(C)(C)CCC1", "note": "[atRA, all-trans-retinoic acid]", "values": [{"measurement": "RISC mRNA following atRA stimulation", "setting": "PAC-1 SMC", "value": "increases in RISC mRNA"}, {"measurement": "time of peak increase in RISC mRNA following atRA stimulation", "setting": "RASMC [2]", "value": "around 4 days"}, {"measurement": "RISC mRNA levels", "setting": "RASMC [2]; 2.0 μM atRA, fresh atRA applied daily, 5 day time course", "value": "increased progressively"}, {"measurement": "RISC mRNA following atRA stimulation", "setting": "hCASMC", "value": "increases in RISC mRNA"}, {"measurement": "Peak Fold Induction", "setting": "RASMC [1]; Cathepsin-L mRNA, peak at 72 hr, relative to 0 time point", "value": "3.5 (72 hr) fold"}, {"measurement": "Peak Fold Induction", "setting": "RASMC [1]; Ceruloplasmin mRNA, peak at 72 hr, relative to 0 time point", "value": "2.0 (72 hr) fold"}, {"measurement": "Peak Fold Induction", "setting": "RASMC [1]; Endolyn mRNA, peak at 96 hr, relative to 0 time point", "value": "2.0 (96 hr) fold"}, {"measurement": "Peak Fold Induction", "setting": "RASMC [1]; Epithelin mRNA, peak at 48 hr, relative to 0 time point", "value": "2.9 (48 hr) fold"}, {"measurement": "Peak Fold Induction", "setting": "RASMC [1]; Importin α mRNA, peak at 12 hr, relative to 0 time point", "value": "4.0 (12 hr) fold"}, {"measurement": "Peak Fold Induction", "setting": "RASMC [1]; LDH-B mRNA, peak at 24 hr, relative to 0 time point", "value": "4.6 (24 hr) fold"}, {"measurement": "Peak Fold Induction", "setting": "RASMC [1]; LOX-1 mRNA, peak at 3 hr, relative to 0 time point", "value": "7.2 (3 hr) fold"}, {"measurement": "Peak Fold Induction", "setting": "RASMC [1]; RDH mRNA, peak at 48 hr, relative to 3 hr time point as baseline", "value": ">2.8 (48 hr) fold"}, {"measurement": "Peak Fold Induction", "setting": "RASMC [1]; SALF mRNA, peak at 3 hr, relative to 0 time point", "value": "4.1 (3 hr) fold"}, {"measurement": "Peak Fold Induction", "setting": "RASMC [1]; SSAT mRNA, peak at 48 hr, relative to 0 time point", "value": "4.8 (48 hr) fold"}, {"measurement": "Peak Fold Induction", "setting": "RASMC [1]; SSeCKS mRNA, peak at 12 hr, relative to 0 time point", "value": "4.8 (12 hr) fold"}, {"measurement": "Peak Fold Induction", "setting": "RASMC [1]; VCAM-1 mRNA, peak at 96 hr, relative to 0 time point", "value": "2.5 (96 hr) fold"}, {"measurement": "Peak Fold Induction", "setting": "RASMC [1]; tTG mRNA, peak at 12 hr, relative to 3 hr time point as baseline", "value": ">4.0 (12 hr) fold"}, {"measurement": "Peak Fold Induction", "setting": "RASMC [1]; α8-integrin mRNA, peak at 72 hr, relative to 0 time point", "value": "2.4 (72 hr) fold"}]}
{"molecule": "C[C@@H]1C[C@@H]([C@H](O)CC2CC(=O)NC(=O)C2)C(=O)[C@@H](C)C1", "note": "[CHX, cycloheximide]", "values": [{"measurement": "overt cytotoxicity", "setting": "[3]", "value": "without any signs of overt cytotoxicity"}, {"measurement": "reduction of de novo protein synthesis", "setting": "[3]", "value": "more than 90%"}, {"measurement": "CHX effect on atRA-increased RISC expression", "setting": "RASMC [2]; 24 hours following treatment", "value": "No change in RISC expression"}, {"measurement": "CHX effect on atRA-increased RISC expression", "setting": "RASMC [2]; 48 hr following atRA treatment", "value": "blocked increased RISC expression"}, {"measurement": "CHX Inhibit (atRA-induced mRNA expression)", "setting": "RASMC [4]; Cathepsin-L mRNA", "value": "Yes"}, {"measurement": "CHX Inhibit (atRA-induced mRNA expression)", "setting": "RASMC [4]; Ceruloplasmin mRNA", "value": "Yes"}, {"measurement": "CHX Inhibit (atRA-induced mRNA expression)", "setting": "RASMC [4]; Endolyn mRNA", "value": "No"}, {"measurement": "CHX Inhibit (atRA-induced mRNA expression)", "setting": "RASMC [4]; Epithelin mRNA", "value": "Yes"}, {"measurement": "CHX Inhibit (atRA-induced mRNA expression)", "setting": "RASMC [4]; Importin α mRNA", "value": "Yes"}, {"measurement": "CHX Inhibit (atRA-induced mRNA expression)", "setting": "RASMC [4]; LDH-B mRNA", "value": "Yes"}, {"measurement": "CHX Inhibit (atRA-induced mRNA expression)", "setting": "RASMC [4]; LOX-1 mRNA", "value": "No"}, {"measurement": "CHX Inhibit (atRA-induced mRNA expression)", "setting": "RASMC [4]; RDH mRNA", "value": "Yes"}, {"measurement": "CHX Inhibit (atRA-induced mRNA expression)", "setting": "RASMC [4]; SALF mRNA", "value": "not blocked and No"}, {"measurement": "CHX Inhibit (atRA-induced mRNA expression)", "setting": "RASMC [4]; SSAT mRNA", "value": "attenuated and completely blocked and Yes"}, {"measurement": "CHX Inhibit (atRA-induced mRNA expression)", "setting": "RASMC [4]; SSeCKS mRNA", "value": "not blocked and No"}, {"measurement": "CHX Inhibit (atRA-induced mRNA expression)", "setting": "RASMC [4]; VCAM-1 mRNA", "value": "Yes"}, {"measurement": "CHX Inhibit (atRA-induced mRNA expression)", "setting": "RASMC [4]; tTG mRNA", "value": "No"}, {"measurement": "CHX Inhibit (atRA-induced mRNA expression)", "setting": "RASMC [4]; α8-integrin mRNA", "value": "attenuated and completely blocked and Yes"}]}
{"molecule": "CC1=C(/C=C/C(C)=C/C=C/C(C)=C/C(=O)Nc2ccc(O)cc2)C(C)(C)CCC1", "note": "[4-Hydroxyphenylretinamide]", "values": [{"measurement": "expression of this gene set (the 14 atRA-inducible clones)", "setting": "RASMC [1]", "value": "elevated"}]}
{"molecule": "B1", "values": [{"measurement": "cell growth (total cell numbers by hemocytometer)", "setting": "PAC1 SMC", "value": "significant inhibition in cell growth"}, {"measurement": "phospho-ERK activation", "setting": "ERK", "value": "activated less phospho-ERK"}]}
